Experimental data as given in ChEMBL document CHEMBL4138175, “Newly designed organotin(IV) carboxylates with peptide linkage: Synthesis, structural elucidation, physicochemical characterizations and pharmacological investigations” (Eur J Med Chem, 2018).
Activity calls are given as the source filed them. No cut-off for these calls is given here.

test system: NCI-H157; test: Cytotoxicity against human NCI-H157 cells at 100 uM after 48 hrs by sulforhodamine B assay; type: functional

Row | Substance | Activity [%]
1 | (2,9-Dimethyl-1,10-Phenanthroline) trimethylstannyl 2-(4-methoxy-2-nitrophenylcarbamo-yl)benzoate | 52.8
2 | (2,2'-Bipyridine) trimethylstannyl 2-(4-methoxy-2-nitrophenylcarbamoyl)benzoate | 63.2

test system: NCI-H157; test: Cytotoxicity against human NCI-H157 cells at 10 uM after 48 hrs by sulforhodamine B assay; type: functional

Row | Substance | Activity [%]
3 | (2,9-Dimethyl-1,10-Phenanthroline) trimethylstannyl 2-(4-methoxy-2-nitrophenylcarbamo-yl)benzoate | 50.3
4 | (2,2'-Bipyridine) trimethylstannyl 2-(4-methoxy-2-nitrophenylcarbamoyl)benzoate | 59.9

test system: NCI-H157; test: Cytotoxicity against human NCI-H157 cells at 1 uM after 48 hrs by sulforhodamine B assay; type: functional

Row | Substance | Activity [%]
5 | (2,9-Dimethyl-1,10-Phenanthroline) trimethylstannyl 2-(4-methoxy-2-nitrophenylcarbamo-yl)benzoate | 48.6
6 | (2,2'-Bipyridine) trimethylstannyl 2-(4-methoxy-2-nitrophenylcarbamoyl)benzoate | 57.8

test system: NCI-H157; test: Cytotoxicity against human NCI-H157 cells at 0.1 uM after 48 hrs by sulforhodamine B assay; type: functional

Row | Substance | Activity [%]
7 | (2,9-Dimethyl-1,10-Phenanthroline) trimethylstannyl 2-(4-methoxy-2-nitrophenylcarbamo-yl)benzoate | 45.5
8 | (2,2'-Bipyridine) trimethylstannyl 2-(4-methoxy-2-nitrophenylcarbamoyl)benzoate | 56.7

test system: Leishmania major; test: Antileishmanial activity against Leishmania major promastigotes at 100 uM after 72 hrs by MTT assay relative to control; type: functional

Row | Substance | Activity [%]
9 | (2,9-Dimethyl-1,10-Phenanthroline) trimethylstannyl 2-(4-methoxy-2-nitrophenylcarbamo-yl)benzoate | 62.1
10 | (2,2'-Bipyridine) trimethylstannyl 2-(4-methoxy-2-nitrophenylcarbamoyl)benzoate | 56.6

test system: Leishmania major; test: Antileishmanial activity against Leishmania major promastigotes at 10 uM after 72 hrs by MTT assay relative to control; type: functional

Row | Substance | Activity [%]
11 | (2,9-Dimethyl-1,10-Phenanthroline) trimethylstannyl 2-(4-methoxy-2-nitrophenylcarbamo-yl)benzoate | 59.5
12 | (2,2'-Bipyridine) trimethylstannyl 2-(4-methoxy-2-nitrophenylcarbamoyl)benzoate | 50.9

test system: Leishmania major; test: Antileishmanial activity against Leishmania major promastigotes at 1 uM after 72 hrs by MTT assay relative to control; type: functional

Row | Substance | Activity [%]
13 | (2,9-Dimethyl-1,10-Phenanthroline) trimethylstannyl 2-(4-methoxy-2-nitrophenylcarbamo-yl)benzoate | 56.7
14 | (2,2'-Bipyridine) trimethylstannyl 2-(4-methoxy-2-nitrophenylcarbamoyl)benzoate | 44.3

test system: Leishmania major; test: Antileishmanial activity against Leishmania major promastigotes at 0.1 uM after 72 hrs by MTT assay relative to control; type: functional

Row | Substance | Activity [%]
15 | (2,9-Dimethyl-1,10-Phenanthroline) trimethylstannyl 2-(4-methoxy-2-nitrophenylcarbamo-yl)benzoate | 52.1
16 | (2,2'-Bipyridine) trimethylstannyl 2-(4-methoxy-2-nitrophenylcarbamoyl)benzoate | 39.2

test system: Klebsiella pneumoniae; test: Antibacterial activity against Klebsiella pneumoniae assessed as zone of inhibition after 24 to 48 hrs by well diffusion method; type: functional

Row | Substance | inhibition zone (IZ)
17 | (2,9-Dimethyl-1,10-Phenanthroline) trimethylstannyl 2-(4-methoxy-2-nitrophenylcarbamo-yl)benzoate | inactive
18 | (2,2'-Bipyridine) trimethylstannyl 2-(4-methoxy-2-nitrophenylcarbamoyl)benzoate | inactive

test system: Streptococcus pyogenes; test: Antibacterial activity against Streptococcus pyogenes assessed as zone of inhibition after 24 to 48 hrs by well diffusion method; type: functional

Row | Substance | inhibition zone (IZ)
19 | (2,9-Dimethyl-1,10-Phenanthroline) trimethylstannyl 2-(4-methoxy-2-nitrophenylcarbamo-yl)benzoate | 5 mm
20 | (2,2'-Bipyridine) trimethylstannyl 2-(4-methoxy-2-nitrophenylcarbamoyl)benzoate | inactive

test system: Staphylococcus epidermidis; test: Antibacterial activity against Staphylococcus epidermidis assessed as zone of inhibition after 24 to 48 hrs by well diffusion method; type: functional

Row | Substance | inhibition zone (IZ) [mm]
21 | (2,9-Dimethyl-1,10-Phenanthroline) trimethylstannyl 2-(4-methoxy-2-nitrophenylcarbamo-yl)benzoate | 16
22 | (2,2'-Bipyridine) trimethylstannyl 2-(4-methoxy-2-nitrophenylcarbamoyl)benzoate | 23.3

test system: Staphylococcus aureus; test: Antibacterial activity against Staphylococcus aureus assessed as zone of inhibition after 24 to 48 hrs by well diffusion method; type: functional

Row | Substance | inhibition zone (IZ)
23 | (2,9-Dimethyl-1,10-Phenanthroline) trimethylstannyl 2-(4-methoxy-2-nitrophenylcarbamo-yl)benzoate | inactive
24 | (2,2'-Bipyridine) trimethylstannyl 2-(4-methoxy-2-nitrophenylcarbamoyl)benzoate | 19.3 mm

test system: Serratia marcescens; test: Antibacterial activity against Serratia marcescens assessed as zone of inhibition after 24 to 48 hrs by well diffusion method; type: functional

Row | Substance | inhibition zone (IZ) [mm]
25 | (2,9-Dimethyl-1,10-Phenanthroline) trimethylstannyl 2-(4-methoxy-2-nitrophenylcarbamo-yl)benzoate | 15.7
26 | (2,2'-Bipyridine) trimethylstannyl 2-(4-methoxy-2-nitrophenylcarbamoyl)benzoate | 19.3

test system: Pseudomonas aeruginosa; test: Antibacterial activity against Pseudomonas aeruginosa assessed as zone of inhibition after 24 to 48 hrs by well diffusion method; type: functional

Row | Substance | inhibition zone (IZ) [mm]
27 | (2,9-Dimethyl-1,10-Phenanthroline) trimethylstannyl 2-(4-methoxy-2-nitrophenylcarbamo-yl)benzoate | 23
28 | (2,2'-Bipyridine) trimethylstannyl 2-(4-methoxy-2-nitrophenylcarbamoyl)benzoate | 20.3

test system: Escherichia coli; test: Antibacterial activity against Escherichia coli assessed as zone of inhibition after 24 to 48 hrs by well diffusion method; type: functional

Row | Substance | inhibition zone (IZ) [mm]
29 | (2,9-Dimethyl-1,10-Phenanthroline) trimethylstannyl 2-(4-methoxy-2-nitrophenylcarbamo-yl)benzoate | 1.53
30 | (2,2'-Bipyridine) trimethylstannyl 2-(4-methoxy-2-nitrophenylcarbamoyl)benzoate | 17.7

test system: Klebsiella pneumoniae; test: Antibacterial activity against Klebsiella pneumoniae assessed as zone of inhibition by measuring activity index after 24 to 48 hrs by well diffusion method relative to penicillin G; type: functional, organism-based

Row | Substance | Activity_index
31 | (2,9-Dimethyl-1,10-Phenanthroline) trimethylstannyl 2-(4-methoxy-2-nitrophenylcarbamo-yl)benzoate | inactive
32 | (2,2'-Bipyridine) trimethylstannyl 2-(4-methoxy-2-nitrophenylcarbamoyl)benzoate | inactive

test system: Streptococcus pyogenes; test: Antibacterial activity against Streptococcus pyogenes assessed as zone of inhibition by measuring activity index after 24 to 48 hrs by well diffusion method relative to tetracycline; type: functional, organism-based

Row | Substance | Activity_index
33 | (2,2'-Bipyridine) trimethylstannyl 2-(4-methoxy-2-nitrophenylcarbamoyl)benzoate | inactive

test system: Streptococcus pyogenes; test: Antibacterial activity against Streptococcus pyogenes assessed as zone of inhibition by measuring activity index after 24 to 48 hrs by well diffusion method relative to penicillin G; type: functional, organism-based

Row | Substance | Activity_index
34 | (2,2'-Bipyridine) trimethylstannyl 2-(4-methoxy-2-nitrophenylcarbamoyl)benzoate | inactive

test system: Streptococcus pyogenes; test: Antibacterial activity against Streptococcus pyogenes assessed as zone of inhibition by measuring activity index after 24 to 48 hrs by well diffusion method relative to ampicillin; type: functional, organism-based

Row | Substance | Activity_index
35 | (2,2'-Bipyridine) trimethylstannyl 2-(4-methoxy-2-nitrophenylcarbamoyl)benzoate | inactive

test system: Streptococcus pyogenes; test: Antibacterial activity against Streptococcus pyogenes assessed as zone of inhibition by measuring activity index after 24 to 48 hrs by well diffusion method relative to amoxicillin; type: functional, organism-based

Row | Substance | Activity_index
36 | (2,2'-Bipyridine) trimethylstannyl 2-(4-methoxy-2-nitrophenylcarbamoyl)benzoate | inactive

test system: Staphylococcus epidermidis; test: Antibacterial activity against Staphylococcus epidermidis assessed as zone of inhibition by measuring activity index after 24 to 48 hrs by well diffusion method relative to tetracycline; type: functional, organism-based

Row | Substance | Activity index
37 | (2,9-Dimethyl-1,10-Phenanthroline) trimethylstannyl 2-(4-methoxy-2-nitrophenylcarbamo-yl)benzoate | 1.6
38 | (2,2'-Bipyridine) trimethylstannyl 2-(4-methoxy-2-nitrophenylcarbamoyl)benzoate | 2.33

test system: Staphylococcus epidermidis; test: Antibacterial activity against Staphylococcus epidermidis assessed as zone of inhibition by measuring activity index after 24 to 48 hrs by well diffusion method relative to amoxicillin; type: functional, organism-based

Row | Substance | Activity index
39 | (2,9-Dimethyl-1,10-Phenanthroline) trimethylstannyl 2-(4-methoxy-2-nitrophenylcarbamo-yl)benzoate | 8
40 | (2,2'-Bipyridine) trimethylstannyl 2-(4-methoxy-2-nitrophenylcarbamoyl)benzoate | 11.7

test system: Staphylococcus aureus; test: Antibacterial activity against Staphylococcus aureus assessed as zone of inhibition by measuring activity index after 24 to 48 hrs by well diffusion method relative to tetracycline; type: functional, organism-based

Row | Substance | Activity_index
41 | (2,9-Dimethyl-1,10-Phenanthroline) trimethylstannyl 2-(4-methoxy-2-nitrophenylcarbamo-yl)benzoate | inactive

test system: Staphylococcus aureus; test: Antibacterial activity against Staphylococcus aureus assessed as zone of inhibition by measuring activity index after 24 to 48 hrs by well diffusion method relative to penicillin G; type: functional, organism-based

Row | Substance | Activity_index
42 | (2,9-Dimethyl-1,10-Phenanthroline) trimethylstannyl 2-(4-methoxy-2-nitrophenylcarbamo-yl)benzoate | inactive

test system: Staphylococcus aureus; test: Antibacterial activity against Staphylococcus aureus assessed as zone of inhibition by measuring activity index after 24 to 48 hrs by well diffusion method relative to ampicillin; type: functional, organism-based

Row | Substance | Activity_index
43 | (2,9-Dimethyl-1,10-Phenanthroline) trimethylstannyl 2-(4-methoxy-2-nitrophenylcarbamo-yl)benzoate | inactive

test system: Staphylococcus aureus; test: Antibacterial activity against Staphylococcus aureus assessed as zone of inhibition by measuring activity index after 24 to 48 hrs by well diffusion method relative to amoxicillin; type: functional, organism-based

Row | Substance | Activity_index
44 | (2,9-Dimethyl-1,10-Phenanthroline) trimethylstannyl 2-(4-methoxy-2-nitrophenylcarbamo-yl)benzoate | inactive

test system: Serratia marcescens; test: Antibacterial activity against Serratia marcescens assessed as zone of inhibition by measuring activity index after 24 to 48 hrs by well diffusion method relative to penicillin G; type: functional

Row | Substance | Activity index
45 | (2,9-Dimethyl-1,10-Phenanthroline) trimethylstannyl 2-(4-methoxy-2-nitrophenylcarbamo-yl)benzoate | 1.96
46 | (2,2'-Bipyridine) trimethylstannyl 2-(4-methoxy-2-nitrophenylcarbamoyl)benzoate | 2.42

test system: Serratia marcescens; test: Antibacterial activity against Serratia marcescens assessed as zone of inhibition by measuring activity index after 24 to 48 hrs by well diffusion method relative to ampicillin; type: functional

Row | Substance | Activity index
47 | (2,9-Dimethyl-1,10-Phenanthroline) trimethylstannyl 2-(4-methoxy-2-nitrophenylcarbamo-yl)benzoate | 1.96
48 | (2,2'-Bipyridine) trimethylstannyl 2-(4-methoxy-2-nitrophenylcarbamoyl)benzoate | 2.42

test system: Serratia marcescens; test: Antibacterial activity against Serratia marcescens assessed as zone of inhibition by measuring activity index after 24 to 48 hrs by well diffusion method relative to amoxicillin; type: functional

Row | Substance | Activity index
49 | (2,9-Dimethyl-1,10-Phenanthroline) trimethylstannyl 2-(4-methoxy-2-nitrophenylcarbamo-yl)benzoate | 2.61
50 | (2,2'-Bipyridine) trimethylstannyl 2-(4-methoxy-2-nitrophenylcarbamoyl)benzoate | 3.22

test system: Pseudomonas aeruginosa; test: Antibacterial activity against Pseudomonas aeruginosa assessed as zone of inhibition by measuring activity index after 24 to 48 hrs by well diffusion method relative to tetracycline; type: functional, organism-based

Row | Substance | Activity index
51 | (2,9-Dimethyl-1,10-Phenanthroline) trimethylstannyl 2-(4-methoxy-2-nitrophenylcarbamo-yl)benzoate | 3.84
52 | (2,2'-Bipyridine) trimethylstannyl 2-(4-methoxy-2-nitrophenylcarbamoyl)benzoate | 3.39

test system: Pseudomonas aeruginosa; test: Antibacterial activity against Pseudomonas aeruginosa assessed as zone of inhibition by measuring activity index after 24 to 48 hrs by well diffusion method relative to penicillin G; type: functional, organism-based

Row | Substance | Activity index
53 | (2,9-Dimethyl-1,10-Phenanthroline) trimethylstannyl 2-(4-methoxy-2-nitrophenylcarbamo-yl)benzoate | 3.84
54 | (2,2'-Bipyridine) trimethylstannyl 2-(4-methoxy-2-nitrophenylcarbamoyl)benzoate | 3.39

test system: Pseudomonas aeruginosa; test: Antibacterial activity against Pseudomonas aeruginosa assessed as zone of inhibition by measuring activity index after 24 to 48 hrs by well diffusion method relative to amoxicillin; type: functional, organism-based

Row | Substance | Activity index
55 | (2,9-Dimethyl-1,10-Phenanthroline) trimethylstannyl 2-(4-methoxy-2-nitrophenylcarbamo-yl)benzoate | 3.84
56 | (2,2'-Bipyridine) trimethylstannyl 2-(4-methoxy-2-nitrophenylcarbamoyl)benzoate | 3.39

test system: Escherichia coli; test: Antibacterial activity against Escherichia coli assessed as zone of inhibition by measuring activity index after 24 to 48 hrs by well diffusion method relative to tetracycline; type: functional

Row | Substance | Activity index
57 | (2,9-Dimethyl-1,10-Phenanthroline) trimethylstannyl 2-(4-methoxy-2-nitrophenylcarbamo-yl)benzoate | 0.77
58 | (2,2'-Bipyridine) trimethylstannyl 2-(4-methoxy-2-nitrophenylcarbamoyl)benzoate | 8.83

test system: DNA; test: Binding affinity to single-stranded DNA (unknown origin) after 10 mins by UV-visible spectrometric method; type: nucleic-acid assay

Row | Substance | K [×10⁴ /M]
59 | (2,9-Dimethyl-1,10-Phenanthroline) trimethylstannyl 2-(4-methoxy-2-nitrophenylcarbamo-yl)benzoate | 2
60 | (2,2'-Bipyridine) trimethylstannyl 2-(4-methoxy-2-nitrophenylcarbamoyl)benzoate | 1.2

test system: NCI-H157; test: Cytotoxicity against human NCI-H157 cells after 48 hrs by sulforhodamine B assay; type: functional, cell-based

Row | Substance | Activity
61 | (2,9-Dimethyl-1,10-Phenanthroline) trimethylstannyl 2-(4-methoxy-2-nitrophenylcarbamo-yl)benzoate | Dose-dependent effect
62 | (2,2'-Bipyridine) trimethylstannyl 2-(4-methoxy-2-nitrophenylcarbamoyl)benzoate | Dose-dependent effect

test system: DNA; test: Binding affinity to single-stranded DNA (unknown origin) assessed as red shift up to 72 uM after 10 mins by UV-visible spectrometric method; type: nucleic-acid assay

Row | Substance | Activity [nm]
63 | (2,9-Dimethyl-1,10-Phenanthroline) trimethylstannyl 2-(4-methoxy-2-nitrophenylcarbamo-yl)benzoate | < 3
64 | (2,2'-Bipyridine) trimethylstannyl 2-(4-methoxy-2-nitrophenylcarbamoyl)benzoate | < 3
